Read-outs that look alike come from different tables or passages of the source.

Format in all cases: biochemical
Assay [1] deals with p110δ/p85α (Homo sapiens (Human), UniProt O00329). Briefly: PI3K δ inhibition assay (TLC lipid kinase or HTRF). Here is the method:
(§1) Class I PI3-Ks can be either purchased (p110α/p85α, p110β/p85α, p110δ/p85α from Upstate, and p110γ from Sigma) or expressed as previously described (Knight et al., 2004). IC50 values are measured using either a standard TLC assay for lipid kinase activity (described below) or a high-throughput membrane capture assay. Kinase reactions are performed by preparing a reaction mixture containing kinase, inhibitor (2% DMSO final concentration), buffer (25 mM HEPES, pH 7.4, 10 mM MgCl2), and freshly sonicated phosphatidylinositol (100 μg/ml). Reactions are initiated by the addition of ATP containing 10 μCi of γ-32P-ATP to a final concentration 10 or 100 μM and allowed to proceed for 5 minutes at room temperature. For TLC analysis, reactions are then terminated by the addition of […] 1N HCl followed by 160 μl CHCl3:MeOH (1:1). The biphasic mixture is vortexed, briefly centrifuged, and the organic phase is transferred to a new tube using a gel loading pipette tip precoated with CHCl3. This extract is spotted on TLC plates and developed for 3-4 hours in a 65:35 solution of n-propanol:1M acetic acid. The TLC plates are then dried, exposed to a phosphorimager screen (Storm, Amersham), and quantitated. For each compound, kinase activity is measured at 10-12 inhibitor concentrations representing two-fold dilutions from the highest concentration tested (typically, 200 μM).
(§2) Other commercial kits or systems for assaying PI3-K activities are available. The commercially available kits or systems can be used to screen for inhibitors and/or agonists of PI3-Ks including but not limited to PI 3-Kinase α, β, δ, and γ. Anr exemplary system is PI3-Kinase (human) HTRF™ Assay from Upstate. […] Briefly, the assay is a time resolved FRET assay that indirectly measures PIP3 product formed by the activity of a PI3-K. The kinase reaction is performed in a microtitre plate (e.g., a 384 well microtitre plate). The total reaction volume is approximately 20 ul per well. In the first step, each well receives 2 ul of test compound in 20% dimethylsulphoxide resulting in a 2% DMSO final concentration. Next, approximately 14.5 ul of a kinase/PIP2 mixture (diluted in 1× reaction buffer) is added per well for a final concentration of 0.25-0.3 ug/ml kinase and 10 uM PIP2. The plate is sealed and incubated for 15 minutes at room temperature. To start the reaction, 3.5 ul of ATP (diluted in 1× reaction buffer) is added per well for a final concentration of 10 uM ATP. The plate is sealed and incubated for 1 hour at room temperature. The reaction is stopped by adding 5 ul of Stop Solution per well and then 5 ul of Detection Mix is added per well. The plate is sealed, incubated for 1 hour at room temperature, and then read on an appropriate plate reader. Data is analyzed and IC50s are generated using GraphPad Prism 5.
A general note: In TR-FRET formats the signal depends on donor and acceptor labels being close together.

The target in assay [2] is p110γ (Homo sapiens (Human), UniProt P48736). Description: PI3K γ inhibition assay (TLC lipid kinase or HTRF). Here is the method:
as §1, §2

The target of assay [3] is p110β/p85α (Homo sapiens, UniProt P42338). Briefly: PI3K β inhibition assay (TLC lipid kinase or HTRF). Here is the method: as §1, §2
Sequence of p110β/p85α (P42338 whole entry, looked up): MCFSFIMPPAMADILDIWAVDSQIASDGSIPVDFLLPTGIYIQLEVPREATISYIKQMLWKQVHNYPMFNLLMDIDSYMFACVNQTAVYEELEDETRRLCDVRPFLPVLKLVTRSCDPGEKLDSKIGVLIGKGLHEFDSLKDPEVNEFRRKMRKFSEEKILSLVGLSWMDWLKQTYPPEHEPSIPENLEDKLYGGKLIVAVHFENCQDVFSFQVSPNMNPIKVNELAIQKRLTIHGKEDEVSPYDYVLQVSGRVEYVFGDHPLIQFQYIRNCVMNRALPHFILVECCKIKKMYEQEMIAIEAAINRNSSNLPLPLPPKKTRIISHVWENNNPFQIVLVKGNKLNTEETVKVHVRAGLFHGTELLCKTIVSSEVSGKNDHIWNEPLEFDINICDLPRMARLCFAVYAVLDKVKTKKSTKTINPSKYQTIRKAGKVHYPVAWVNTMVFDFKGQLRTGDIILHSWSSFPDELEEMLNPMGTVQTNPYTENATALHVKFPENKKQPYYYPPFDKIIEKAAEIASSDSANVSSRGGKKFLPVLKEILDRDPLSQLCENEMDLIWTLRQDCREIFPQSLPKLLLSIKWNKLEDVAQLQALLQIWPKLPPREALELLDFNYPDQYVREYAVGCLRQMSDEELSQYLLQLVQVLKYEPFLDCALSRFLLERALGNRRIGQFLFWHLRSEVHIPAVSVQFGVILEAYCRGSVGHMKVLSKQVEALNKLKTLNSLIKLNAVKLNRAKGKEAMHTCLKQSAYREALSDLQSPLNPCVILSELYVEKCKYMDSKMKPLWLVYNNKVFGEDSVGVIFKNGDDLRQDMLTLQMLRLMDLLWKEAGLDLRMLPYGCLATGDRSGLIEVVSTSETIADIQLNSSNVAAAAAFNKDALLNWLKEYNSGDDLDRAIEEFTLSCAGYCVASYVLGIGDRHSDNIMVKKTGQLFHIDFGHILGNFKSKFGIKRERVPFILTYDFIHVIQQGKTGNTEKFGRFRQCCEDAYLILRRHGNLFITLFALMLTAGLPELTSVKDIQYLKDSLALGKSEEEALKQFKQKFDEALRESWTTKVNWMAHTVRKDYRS
The target of assay [4] is p110α/p85α (Homo sapiens (Human), UniProt P42336). Briefly: PI3K α inhibition assay (TLC lipid kinase or HTRF). Here is the method:
as §1, §2

Sequence of p110α/p85α (P42336 whole entry): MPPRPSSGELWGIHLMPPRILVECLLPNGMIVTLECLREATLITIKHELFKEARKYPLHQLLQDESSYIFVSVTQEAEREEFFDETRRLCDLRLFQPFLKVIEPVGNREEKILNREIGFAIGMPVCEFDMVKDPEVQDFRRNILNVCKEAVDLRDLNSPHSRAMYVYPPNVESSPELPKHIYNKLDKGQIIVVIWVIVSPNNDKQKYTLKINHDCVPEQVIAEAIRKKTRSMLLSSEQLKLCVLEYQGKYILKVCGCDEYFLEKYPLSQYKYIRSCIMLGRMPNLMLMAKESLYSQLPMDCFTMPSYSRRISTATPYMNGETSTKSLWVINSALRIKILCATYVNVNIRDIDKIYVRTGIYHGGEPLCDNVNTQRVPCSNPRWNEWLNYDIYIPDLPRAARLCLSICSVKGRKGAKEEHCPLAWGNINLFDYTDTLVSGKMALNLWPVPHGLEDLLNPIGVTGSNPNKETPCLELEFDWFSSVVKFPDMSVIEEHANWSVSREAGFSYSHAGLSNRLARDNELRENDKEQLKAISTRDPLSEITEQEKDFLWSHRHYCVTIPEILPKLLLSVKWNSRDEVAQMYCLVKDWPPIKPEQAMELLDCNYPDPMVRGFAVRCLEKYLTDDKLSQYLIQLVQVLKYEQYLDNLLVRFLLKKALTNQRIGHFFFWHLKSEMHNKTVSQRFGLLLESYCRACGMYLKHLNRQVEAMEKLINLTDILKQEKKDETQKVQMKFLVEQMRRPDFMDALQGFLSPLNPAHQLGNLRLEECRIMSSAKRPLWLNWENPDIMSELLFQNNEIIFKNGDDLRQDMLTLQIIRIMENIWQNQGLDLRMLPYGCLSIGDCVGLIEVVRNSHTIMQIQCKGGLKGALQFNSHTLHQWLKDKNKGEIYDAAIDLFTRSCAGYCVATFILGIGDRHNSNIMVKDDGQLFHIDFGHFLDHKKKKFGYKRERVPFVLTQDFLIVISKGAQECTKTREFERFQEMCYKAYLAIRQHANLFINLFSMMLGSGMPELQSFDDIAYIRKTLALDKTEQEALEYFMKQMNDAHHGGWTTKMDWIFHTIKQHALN
Sequence of p110α/p85α (P27986 whole entry partner): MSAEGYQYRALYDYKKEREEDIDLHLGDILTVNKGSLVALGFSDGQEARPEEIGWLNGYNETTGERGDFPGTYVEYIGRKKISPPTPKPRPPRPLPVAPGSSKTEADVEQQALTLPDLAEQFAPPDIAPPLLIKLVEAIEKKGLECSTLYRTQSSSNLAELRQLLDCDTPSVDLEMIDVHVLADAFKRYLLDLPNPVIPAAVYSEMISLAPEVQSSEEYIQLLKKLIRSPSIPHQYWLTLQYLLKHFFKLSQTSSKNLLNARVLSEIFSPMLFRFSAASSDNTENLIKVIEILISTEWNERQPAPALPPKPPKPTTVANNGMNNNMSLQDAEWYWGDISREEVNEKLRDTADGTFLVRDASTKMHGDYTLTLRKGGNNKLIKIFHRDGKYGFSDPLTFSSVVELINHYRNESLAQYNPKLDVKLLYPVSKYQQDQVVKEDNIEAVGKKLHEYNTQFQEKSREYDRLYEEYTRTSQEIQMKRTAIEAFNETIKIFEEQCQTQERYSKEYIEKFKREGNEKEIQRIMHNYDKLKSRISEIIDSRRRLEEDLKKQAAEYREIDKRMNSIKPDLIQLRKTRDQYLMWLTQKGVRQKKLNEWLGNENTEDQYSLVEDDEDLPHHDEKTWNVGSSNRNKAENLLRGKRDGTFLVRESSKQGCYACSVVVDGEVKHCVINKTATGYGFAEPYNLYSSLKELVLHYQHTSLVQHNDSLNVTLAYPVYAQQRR
Sequence of p110γ (P48736 whole entry): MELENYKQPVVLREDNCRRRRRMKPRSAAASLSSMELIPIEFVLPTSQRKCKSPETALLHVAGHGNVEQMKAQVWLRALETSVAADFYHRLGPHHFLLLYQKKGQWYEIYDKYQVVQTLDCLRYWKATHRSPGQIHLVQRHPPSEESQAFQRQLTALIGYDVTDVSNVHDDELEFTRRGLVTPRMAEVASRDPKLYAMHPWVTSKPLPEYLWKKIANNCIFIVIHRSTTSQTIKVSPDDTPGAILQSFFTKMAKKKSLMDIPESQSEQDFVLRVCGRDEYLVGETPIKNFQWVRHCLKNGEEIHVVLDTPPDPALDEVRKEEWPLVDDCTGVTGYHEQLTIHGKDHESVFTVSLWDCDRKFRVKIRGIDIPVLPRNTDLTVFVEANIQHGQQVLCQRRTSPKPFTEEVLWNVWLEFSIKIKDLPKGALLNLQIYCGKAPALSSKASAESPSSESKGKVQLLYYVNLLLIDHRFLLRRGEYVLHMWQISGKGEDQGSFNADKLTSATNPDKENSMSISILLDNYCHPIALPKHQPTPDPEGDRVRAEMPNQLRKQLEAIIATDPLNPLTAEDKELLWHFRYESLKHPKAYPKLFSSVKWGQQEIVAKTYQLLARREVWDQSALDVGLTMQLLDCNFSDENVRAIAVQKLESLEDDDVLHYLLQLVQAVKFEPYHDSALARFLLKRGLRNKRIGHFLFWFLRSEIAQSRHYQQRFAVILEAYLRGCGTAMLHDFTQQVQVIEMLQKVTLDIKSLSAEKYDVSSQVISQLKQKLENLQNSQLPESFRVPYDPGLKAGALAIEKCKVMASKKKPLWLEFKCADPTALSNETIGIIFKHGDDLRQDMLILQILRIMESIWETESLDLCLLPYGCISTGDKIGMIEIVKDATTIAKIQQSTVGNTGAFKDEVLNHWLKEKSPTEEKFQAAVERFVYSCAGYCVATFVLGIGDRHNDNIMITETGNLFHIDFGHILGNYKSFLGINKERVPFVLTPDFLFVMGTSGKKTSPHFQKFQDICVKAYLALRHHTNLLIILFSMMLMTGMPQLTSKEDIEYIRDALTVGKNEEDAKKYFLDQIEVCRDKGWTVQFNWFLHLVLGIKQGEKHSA
Sequence of p110δ/p85α (O00329 whole entry): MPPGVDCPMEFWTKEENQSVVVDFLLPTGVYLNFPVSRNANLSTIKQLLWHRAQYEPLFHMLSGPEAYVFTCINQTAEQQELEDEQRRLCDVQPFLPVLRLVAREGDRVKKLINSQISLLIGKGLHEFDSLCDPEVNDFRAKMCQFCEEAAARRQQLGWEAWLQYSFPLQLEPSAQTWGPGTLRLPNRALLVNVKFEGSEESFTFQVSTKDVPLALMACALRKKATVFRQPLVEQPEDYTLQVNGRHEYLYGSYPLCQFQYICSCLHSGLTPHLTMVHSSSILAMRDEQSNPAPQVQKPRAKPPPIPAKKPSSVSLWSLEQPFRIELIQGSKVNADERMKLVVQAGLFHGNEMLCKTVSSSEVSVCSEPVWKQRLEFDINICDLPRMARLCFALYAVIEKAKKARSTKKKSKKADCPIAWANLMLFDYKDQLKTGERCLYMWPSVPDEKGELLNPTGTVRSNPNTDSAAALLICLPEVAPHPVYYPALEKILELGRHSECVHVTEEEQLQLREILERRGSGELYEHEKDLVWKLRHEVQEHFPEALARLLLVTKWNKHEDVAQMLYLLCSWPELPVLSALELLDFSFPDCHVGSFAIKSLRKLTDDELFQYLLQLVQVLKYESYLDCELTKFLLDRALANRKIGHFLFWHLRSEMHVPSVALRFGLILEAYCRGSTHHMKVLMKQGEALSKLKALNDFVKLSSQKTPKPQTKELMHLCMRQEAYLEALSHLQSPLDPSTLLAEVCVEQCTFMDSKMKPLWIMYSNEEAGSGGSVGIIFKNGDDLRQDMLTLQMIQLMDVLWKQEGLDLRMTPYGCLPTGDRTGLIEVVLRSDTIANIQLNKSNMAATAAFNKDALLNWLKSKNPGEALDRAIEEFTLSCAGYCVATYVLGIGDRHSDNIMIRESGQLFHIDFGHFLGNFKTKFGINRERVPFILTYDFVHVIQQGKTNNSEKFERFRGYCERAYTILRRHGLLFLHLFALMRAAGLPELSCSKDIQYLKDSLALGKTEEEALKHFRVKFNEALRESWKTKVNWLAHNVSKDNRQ
Sequence of p110δ/p85α (P27986 whole entry partner): as the sequence (P27986 whole entry partner) above

In general, IC50 refers to the concentration needed to halve the response being measured. As for `CNc1ncnc2c1c(-c1cc(O)cc(F)c1)nn2Cc1cc2ccccc2nc1N(C)CCN1CCOCC1` [Compound 76], the IC50 in assay [1], in assay [2], in assay [3] (read-out: PI3K β IC50) and in assay [4] was > 1000 nM each time.
Turning to `CN1CCN(c2nc3ccccc3cc2CNc2ncnc3[nH]cnc23)CC1` [Compound 87], the concentration for half-maximal inhibition (IC50) in assay [1], in assay [2], in assay [3] (read-out: PI3K β IC50) and in assay [4] was > 1000 nM each time.
On to `CC(Nc1ncnc2[nH]cnc12)c1cc2ccccc2nc1N1CCCC1` (centres unmarked) [Compound 88], for which the IC50 in assay [1] is 100 to 1000 nM; in assay [2], > 1000 nM; in assay [3] (read-out: PI3K β IC50), > 1000 nM; in assay [4] it was > 1000 nM.
Turning to `CC(c1cc2ccccc2nc1N1CCN(C)CC1)n1cnc2c(N)ncnc21` (centres unmarked) [Compound 89], the 50% inhibitory concentration (IC50) in assay [1] was 100 to 1000 nM; in assay [2], > 1000 nM; in assay [3] (read-out: PI3K β IC50), > 1000 nM; in assay [4], > 1000 nM.
Turning to `CCC(c1cc2ccccc2nc1N1CCN(C)CC1)n1cnc2c(N)ncnc21` (centres unmarked) [Compound 90], the 50% inhibitory concentration (IC50) in assay [1] was 100 to 1000 nM; in assay [2] it was > 1000 nM; in assay [3] (read-out: PI3K β IC50), > 1000 nM; in assay [4] it was > 1000 nM.
Consider `Nc1ncnc2c1c(-c1cccc(O)c1)nn2Cc1cc2ccccc2nc1-c1ccccc1F` [Compound 91], for which the IC50 in assay [1] was 100 to 1000 nM; in assay [2] it was 100 to 1000 nM; in assay [3] (read-out: PI3K β IC50) it was > 1000 nM; in assay [4] it was > 1000 nM.
With `CC(Nc1ncnc2[nH]cnc12)c1cc2ccccc2nc1-c1ccccc1` (centres unmarked) [Compound 93], the IC50 in assay [1] was < 100 nM; in assay [2], 100 to 1000 nM; in assay [3] (read-out: PI3K β IC50) it was > 1000 nM; in assay [4] it was > 1000 nM.
`CCC(Nc1ncnc2[nH]cnc12)c1cc2ccccc2nc1N1CCN(C)CC1` (centres unmarked) [Compound 95]: the IC50 in assay [1] is < 100 nM; in assay [2], > 1000 nM; in assay [3] (read-out: PI3K β IC50), > 1000 nM; in assay [4] it was > 1000 nM.
`CCc1nc2ccccc2cc1Cn1nc(-c2cccc(O)c2)c2c(N)ncnc21` [Compound 96]: the IC50 in assay [1] is < 100 nM; in assay [2] it was 100 to 1000 nM; in assay [3] (read-out: PI3K β IC50), > 1000 nM; in assay [4], > 1000 nM.
For the molecule `CCc1nc2ccccc2cc1Cn1nc(-c2cc(O)cc(F)c2)c2c(N)ncnc21` [Compound 97], the IC50 in assay [1] is < 100 nM; in assay [2], 100 to 1000 nM; in assay [3] (read-out: PI3K β IC50), 100 to 1000 nM; in assay [4] it was > 1000 nM.
On to `CCc1nc2ccccc2cc1Cn1nc(-c2ccc3nc(NC(C)=O)sc3c2)c2c(N)ncnc21` [Compound 98], for which the concentration for half-maximal inhibition (IC50) in assay [1] was < 100 nM; in assay [2], < 100 nM; in assay [3] (read-out: PI3K β IC50), > 1000 nM; in assay [4], > 1000 nM.
Regarding `CCc1nc2ccccc2cc1Cn1nc(-c2ccc3nc(N)sc3c2)c2c(N)ncnc21` [Compound 99], the IC50 was < 100 nM in assay [1], < 100 nM in assay [2], 100 to 1000 nM in assay [3] (read-out: PI3K β IC50) and 100 to 1000 nM in assay [4].
Turning to `Cc1ccccc1-c1nc2ccccc2nc1Cn1nc(-c2cccc(O)c2)c2c(N)ncnc21` [Compound 108], the IC50 in assay [1] was 100 to 1000 nM; in assay [2], > 1000 nM; in assay [3] (read-out: PI3K β IC50), > 1000 nM; in assay [4], > 1000 nM.
Take `Nc1ncnc2c1c(-c1cccc(O)c1)nn2Cc1cc2ccccc2[nH]c1=O` [Compound 109]: the concentration for half-maximal inhibition (IC50) in assay [1] is 100 to 1000 nM; in assay [2] it was > 1000 nM; in assay [3] (read-out: PI3K β IC50), > 1000 nM; in assay [4], > 1000 nM.
As to `CC(C)n1c(=O)c(Cn2nc(-c3cccc(O)c3)c3c(N)ncnc32)cc2ccccc21` [Compound 110], the half-inhibitory concentration (IC50) was 100 to 1000 nM in assay [1], > 1000 nM in assay [2], > 1000 nM in assay [3] (read-out: PI3K β IC50) and > 1000 nM in assay [4].
Take `Cn1c(=O)c(Cn2nc(-c3cccc(O)c3)c3c(N)ncnc32)cc2ccccc21` [Compound 111]: the IC50 in assay [1] was 100 to 1000 nM; in assay [2], > 1000 nM; in assay [3] (read-out: PI3K β IC50), > 1000 nM; in assay [4] it was > 1000 nM.
With `Cn1c(=O)c(Cn2nc(-c3cc(O)cc(F)c3)c3c(N)ncnc32)cc2ccccc21` [Compound 112], the IC50 in assay [1] is < 100 nM; in assay [2], 100 to 1000 nM; in assay [3] (read-out: PI3K β IC50), > 1000 nM; in assay [4] it was > 1000 nM.
`CCn1c(=O)c(Cn2nc(-c3cc(O)cc(F)c3)c3c(N)ncnc32)cc2ccccc21` [Compound 113]: the half-inhibitory concentration (IC50) in assay [1] was < 100 nM; in assay [2], > 1000 nM; in assay [3] (read-out: PI3K β IC50), > 1000 nM; in assay [4], > 1000 nM.
For the molecule `Nc1ncnc2c1c(-c1cc(O)cc(F)c1)nn2Cc1cc2ccccc2[nH]c1=O` [Compound 114], the 50% inhibitory concentration (IC50) in assay [1] is < 100 nM; in assay [2] it was > 1000 nM; in assay [3] (read-out: PI3K β IC50), > 1000 nM; in assay [4] it was > 1000 nM.
As to `CCn1c(=O)c(Cn2nc(-c3cccc(O)c3)c3c(N)ncnc32)cc2ccccc21` [Compound 115], the IC50 is 100 to 1000 nM in assay [1], > 1000 nM in assay [2], > 1000 nM in assay [3] (read-out: PI3K β IC50) and > 1000 nM in assay [4].
Consider `CCn1c(=O)c(Cn2nc(-c3cccc(O)c3)c3c(N)ncnc32)nc2ccccc21` [Compound 116], for which the IC50 in assay [1] is 100 to 1000 nM; in assay [2] it was > 1000 nM; in assay [3] (read-out: PI3K β IC50) it was > 1000 nM; in assay [4], > 1000 nM.
Turning to `CCn1c(=O)c(Cn2nc(-c3cc(O)cc(F)c3)c3c(N)ncnc32)nc2ccccc21` [Compound 117], the concentration for half-maximal inhibition (IC50) was < 100 nM in assay [1], > 1000 nM in assay [2], > 1000 nM in assay [3] (read-out: PI3K β IC50) and > 1000 nM in assay [4].
In the case of `CCn1c(=O)c(Cn2nc(-c3ccc4nc(NC(C)=O)sc4c3)c3c(N)ncnc32)nc2ccccc21` [Compound 118], the IC50 in assay [1] is < 100 nM; in assay [2] it was 100 to 1000 nM; in assay [3] (read-out: PI3K β IC50) it was > 1000 nM; in assay [4], > 1000 nM.
In the case of `CCn1c(=O)c(Cn2nc(-c3ccc4nc(N)sc4c3)c3c(N)ncnc32)nc2ccccc21` [Compound 119], the half-inhibitory concentration (IC50) in assay [1] is < 100 nM; in assay [2], < 100 nM; in assay [3] (read-out: PI3K β IC50), > 1000 nM; in assay [4], 100 to 1000 nM.
As to `CC(=O)Nc1nc2ccc(-c3nn(Cc4cc5ccccc5nc4-n4ccnc4C)c4ncnc(N)c34)cc2s1` [Compound 170], the half-maximal inhibitory concentration (IC50) in assay [1] is < 100 nM; in assay [2], 100 to 1000 nM; in assay [3] (read-out: PI3K β IC50), > 1000 nM; in assay [4] it was > 1000 nM.
For `C=Cc1nn(Cc2cc3ccccc3nc2-c2ccccc2F)c2ncnc(N)c12` [Compound 190], the concentration for half-maximal inhibition (IC50) in assay [1], in assay [2], in assay [3] (read-out: PI3K β IC50) and in assay [4] was > 1000 nM in each case.
For the molecule `NC(=O)c1nn(Cc2cc3ccccc3nc2-c2ccccc2F)c2ncnc(N)c12` [Compound 191], the IC50 in assay [1] was 100 to 1000 nM; in assay [2], > 1000 nM; in assay [3] (PI3K β IC50), > 1000 nM; in assay [4], > 1000 nM.
Consider `Nc1ncnc2c1c(/C=C1/CCNC1=O)nn2Cc1cc2ccccc2nc1-c1ccccc1F` [Compound 193], for which the IC50 in assay [1], in assay [2], in assay [3] (read-out: PI3K β IC50) and in assay [4] was > 1000 nM in each case.
`NC(=O)/C=C/c1nn(Cc2cc3ccccc3nc2-c2ccccc2F)c2ncnc(N)c12` [Compound 194]: the IC50 in assay [1] was 100 to 1000 nM; in assay [2], > 1000 nM; in assay [3] (read-out: PI3K β IC50), > 1000 nM; in assay [4], > 1000 nM.

(Values after US9790228B2, “Heterocyclic kinase inhibitors” (Intellikine LLC, priority 2008, dated 2017).)
